70 molecules from patent publication US8329704B2, “Substituted pyrazinone derivatives for use in MCH-1 mediated diseases” (Janssen Pharmaceutica, N.V., priority 2005, dated 2012) can be followed below.

The target of this assay is T1, human MCH-1 receptor (Homo sapiens, UniProt Q99705).
T1 construct: expressed in transfected cells
As to the kind of experiment: Ca2+ mobilization experiment for the MCH-1 receptor (FLIPR), inhibition of MCH-induced Ca2+ mobilization. In kind it is cell-based. The note with it: CHO cells stably expressing human MCH-1 receptor, inhibition of MCH-induced Ca2+ response, read-out: MCH-1 pIC50 (converted). As to the method: The interaction of the compounds of Formula (I) with MCH-1 receptors was assessed in in vitro transient calcium (Ca^2+) mobilization assays in the fluorimetric imaging plate reader (FLIPR) format (Sullivan et al. 1999, Methods Mol Biol 114:125-133). In general, the natural agonist (MCH) is incubated with cells expressing the MCH-1 receptor, which elicits a concentration-dependent transient mobilization of Ca^2+ from internal stores. The interaction of the test compounds with the receptor is assessed in competition experiments. Various concentrations of the test compound are added to the incubation mixture containing the receptor-expressing cells and a submaximal concentration of MCH. The test compound in proportion to its antagonist potency and its concentration inhibits MCH-induced Ca^2+ mobilization.
Chinese Hamster ovary cells (CHO) stably expressing the human MCH-1 receptor are grown in a 1:1 mixture of Dulbecco's Modified Eagles Medium (DMEM) and HAM's F12 medium including Glutamax™ (Invitrogen), supplemented with 10% heat-inactivated fetal bovine serum and 400 μg/ml geneticin.
Twenty-four hours before the experiment, MCH-1 receptor-expressing CHO cells are seeded in 20 μl (5,000 cells per well) into 384-well black wall, clear bottom microtiter plates (Costar). On the day of the experiment, 20 μl per well calcium assay kit containing 10 mM probenicide (Molecular Devices) is added. Cells are loaded for 90 min at 37° C. and 5% CO2 in a cell culture incubator. After loading, 20 μl of serial dilutions of the test compound are added and cells are further incubated for 20 min at room temperature in the dark. After 20 min, 20 μl of a submaximal MCH concentration is added and changes in intracellular calcium are recorded directly in a FLIPR III apparatus (Molecular devices).
Data from assays in the presence of compound were calculated as a percentage of total Ca^2+-responses measured in the absence of test compound. Inhibition curves, plotting percent of total Ca^2+-responses versus the log value of the concentration of the test compound, were automatically generated, and sigmoidal inhibition curves were fitted using non-linear regression. The pIC50 values of test compounds were derived from individual curves.
A general note: Calcium assays in cells follow changes in intracellular calcium, usually with a dye or a luminescent sensor.

T1 sequence (Q99705 whole entry): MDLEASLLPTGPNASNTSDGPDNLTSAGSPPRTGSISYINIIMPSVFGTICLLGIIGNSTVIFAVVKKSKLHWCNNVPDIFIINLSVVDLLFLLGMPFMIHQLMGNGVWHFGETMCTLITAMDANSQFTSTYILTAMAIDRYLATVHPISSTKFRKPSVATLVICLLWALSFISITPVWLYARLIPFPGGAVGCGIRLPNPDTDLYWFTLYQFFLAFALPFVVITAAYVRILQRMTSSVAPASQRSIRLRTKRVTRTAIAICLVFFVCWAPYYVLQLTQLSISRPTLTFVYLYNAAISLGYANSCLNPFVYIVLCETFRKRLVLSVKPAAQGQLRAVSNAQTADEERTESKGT

`CN(C(=O)OC(C)(C)C)C1CCN(c2ccc(-n3ccnc(NCCOc4ccccc4)c3=O)cc2)C1` (stereo not shown) [1-04]: the IC50 was 1580 nM. Take `COc1cc(-n2ccnc(NCCOc3ccccc3)c2=O)ccc1OCCN(C)C(=O)CN(C)C` [1-63]: the IC50 is 200 nM. In the case of `COc1cc(-n2ccnc(NCCc3ccccc3)c2=O)ccc1N1CCC(N(C2CC2)C2CC2)C1` (stereo not shown) [3-18], the IC50 was 158 nM. As for `COc1cc(-n2ccnc(NCCc3ccccc3)c2=O)ccc1N1CCCN(C)CC1` [3-19], the IC50 is 126 nM.

With `COc1cc(-n2ccnc(SCCc3ccccc3)c2=O)ccc1N1CCC(N2C(C)CCCC2C)C1` (stereo not shown) [6-09], the IC50 is 31.6 nM. With `COc1cc(-n2ccnc(NCCCOc3ccc(F)cc3)c2=O)ccc1OCCN1CCCC1` [2-18] the figure was 39.8 nM.

On to `COc1cc(-n2ccnc(NCCOc3ccccc3)c2=O)ccc1N1CCC(N(C)C(=O)C(C)C)C1` (stereo not shown) [1-11], for which the IC50 is 100 nM. For the molecule `COc1cc(-n2ccnc(NCCc3ccccc3)c2=O)ccc1OCCN1CCC(C(=O)NC2CC2)CC1` [3-54], the IC50 is 20 nM. With `COc1cc(-n2ccnc(NCCCOc3cccc(C#N)c3)c2=O)ccc1OCCN1CCCC1` [2-44] the figure was 79.4 nM; with `COc1cc(-n2ccnc(NCCOc3ccccc3)c2=O)ccc1N1CCC(N(C)C(=O)C2CC2)C1` (stereo not shown) [1-12], 79.4 nM; with `NC(=O)C1CCN(CCOc2ccc(-n3ccnc(NCCOc4ccccc4)c3=O)cc2)CC1` [1-41], 631 nM. As for `O=c1c(NCCc2ccccc2)nccn1CCc1ccc(CN2CCOCC2)cc1` [9-02], the IC50 is 39.8 nM. The same measure for `CN(C1CCN(c2ccc(-n3ccnc(NCCc4ccccc4)c3=O)cc2)C1)S(C)(=O)=O` (stereo not shown) [3-01]: 100 nM; for `COc1cc(-n2ccnc(NCCc3ccccc3)c2=O)ccc1OCCN1CCCC1C(N)=O` (stereo not shown) [3-48]: 79.4 nM. Take `CN1CCN(c2ccc(-n3ccnc(NCCc4ccccc4)c3=O)cc2Cl)CC1` [3-78]: the IC50 is 50.1 nM. The same measure for `COc1cc(-n2ccnc(NCCc3ccccc3)c2=O)ccc1OCCN1CCOC[C@@H]1C` [3-60]: 63.1 nM; for `CCCC(=O)N(C)CCOc1ccc(-n2ccnc(NCCOc3ccccc3)c2=O)cc1OC` [1-62]: 50.1 nM. In the case of `CC(=O)N(C)C1CCN(c2ccc(-n3ccnc(NCCOc4ccccc4)c3=O)cn2)C1` (stereo not shown) [3-88], the IC50 is 794 nM. As for `CCCN1CCC(Nc2ccc(-n3ccnc(NCCc4ccccc4)c3=O)cc2OC)C1` (stereo not shown) [3-26], the IC50 is 39.8 nM. For `O=c1c(NCCOc2ccccc2)nccn1-c1ccc(C=CCN2CCCC2)cc1` [1-16], the IC50 was 100 nM.

As for `CCCC(=O)N(C)CCOc1ccc(-n2ccnc(NCCOc3ccccc3)c2=O)cc1` [1-31], the IC50 was 316 nM.

As to `COc1cc(-n2ccnc(NCCc3ccccc3)c2=O)ccc1OCCCNC(=O)C1CC1` [3-69], the IC50 was 126 nM. Consider `COc1cc(-n2ccnc(N3CCC(Oc4ccccc4)CC3)c2=O)ccc1OCCN1CCCC1` [4-02], for which the IC50 is 631 nM. Turning to `COc1cc(-n2ccnc(NCCc3ccccc3)c2=O)ccc1OC1CCN(C2CC2)C1` (stereo not shown) [3-33], the IC50 is 50.1 nM. The same measure for `COc1cc(-n2ccnc(OCCOc3ccccc3)c2=O)ccc1OCCN1CCCC1` [2-14]: 100 nM; for `COc1cc(-n2ccnc(NCCc3ccc(C(F)(F)F)cc3)c2=O)ccc1OCCN1CCCC1` [2-34]: 100 nM.

With `COc1cc(-n2ccnc(SCCc3ccccc3)c2=O)ccc1C=CCN1CCOCC1` [6-13], the IC50 was 20 nM. In the case of `COc1cc(-n2ccnc(CCOc3ccccc3)c2=O)ccc1OCCN1CCCC1` [2-07], the IC50 was 79.4 nM. Regarding `COc1cc(-n2ccnc(NCCOc3ccccc3)c2=O)ccc1OCC(C)N1CCCC1` (stereo not shown) [1-82], the IC50 is 63.1 nM. With `COc1cc(-n2ccnc(NCCOc3ccccc3)c2=O)ccc1OCCN1CCC(C#N)CC1` [1-71], the IC50 was 100 nM. For the molecule `COc1cc(-n2ccnc(NCCc3ccccc3)c2=O)ccc1OCCNC(C)=O` [3-38], the IC50 was 63.1 nM. Regarding `COc1cc(-n2ccnc(N3CCCC(c4ccccc4)C3)c2=O)ccc1OCCN1CCCC1` (stereo not shown) [4-01], the IC50 is 1260 nM. Turning to `COCCN1CCN(c2ccc(-n3ccnc(NCCc4ccccc4)c3=O)cc2Cl)CC1` [3-80], the IC50 is 79.4 nM. Take `COc1cc(-n2ccnc(NCCc3cccc(Br)c3)c2=O)ccc1OCCN1CCCC1` [2-20]: the IC50 was 31.6 nM. As for `COc1cc(-n2ccnc(NCCCOc3ccccc3Cl)c2=O)ccc1OCCN1CCCC1` [2-29], the IC50 is 63.1 nM. Consider `COc1cc(-n2ccnc(NCCc3ccccc3)c2=O)ccc1OCCCNC(=O)C(C)C` [3-67], for which the IC50 is 126 nM.

For `COc1cc(-n2ccnc(SCCc3ccccc3)c2=O)ccc1OC1CCN(C(C)C)C1` (stereo not shown) [6-16], the IC50 is 25.1 nM. `COc1cc(-n2ccnc(NCCOc3ccccc3)c2=O)ccc1/C=C/CN1CCOCC1` [1-18]: the IC50 is 39.8 nM.

Turning to `COc1cc(-n2ccnc(NCCc3ccccc3Br)c2=O)ccc1OCCN1CCCC1` [2-19], the IC50 is 316 nM.

Turning to `COc1cc(-n2ccnc(NCCc3ccccc3)c2=O)ccc1OCCCNC(C)=O` [3-66], the IC50 is 126 nM. Take `COc1cc(-n2ccnc(SCCc3ccccc3)c2=O)ccc1N1CCC(O)C1` (stereo not shown) [6-01]: the IC50 is 39.8 nM. With `CN(C)CCCNc1ccc(-n2ccnc(NCCOc3ccccc3)c2=O)cc1` [1-21], the IC50 was 501 nM. With `COc1cccc(OCCCNc2nccn(-c3ccc(OCCN4CCCC4)c(OC)c3)c2=O)c1` [2-37], the IC50 was 398 nM. Turning to `COc1cc(-n2ccnc(NCCOc3ccccc3)c2=O)ccc1OCCCN1CCC(F)(F)CC1` [1-79], the IC50 is 39.8 nM. For the molecule `O=c1c(NCCc2ccccc2)nccn1-c1ccc2c(c1)OCC(CN1CCOCC1)=C2` [3-92], the IC50 was 79.4 nM. As to `COc1cc(-n2ccnc(NCCc3ccccc3)c2=O)ccc1OCC1CCCN1C(=O)OC(C)(C)C` (stereo not shown) [3-36], the IC50 was 126 nM. For the molecule `COc1cc(-n2ccnc(SCCc3ccccc3)c2=O)ccc1N1CCC(O)CC1` [6-11], the IC50 was 126 nM. Consider `O=c1c(NCCOc2ccccc2)nccn1-c1ccc(OCCN(CCO)Cc2ccccc2)cc1` [1-33], for which the IC50 is 794 nM.

Regarding `COc1cc(-n2ccnc(NCCOc3ccccc3)c2=O)ccc1OCCCN1CCCC1` [1-75], the IC50 was 100 nM. Take `O=c1c(NCCOc2ccccc2)nccn1-c1ccc(OCCN2CCCC2)cc1` [1-35]: the IC50 was 501 nM. For the molecule `COc1cc(-n2ccnc(NCCc3ccccc3)c2=O)ccc1OCCNC(=O)c1ccncc1` [3-44], the IC50 is 200 nM. In the case of `COc1cc(-n2ccnc(NCCc3ccc(F)cc3)c2=O)ccc1OCCN1CCCC1` [2-16], the IC50 was 25.1 nM.

For the molecule `COc1cc(-n2ccnc(NCCOc3ccccc3)c2=O)ccc1N1CCC(NC(=O)C(C)C)CC1` [1-15], the IC50 was 100 nM. As to `COc1cc(-n2ccnc(NCCc3ccc(Cl)cc3Cl)c2=O)ccc1OCCN1CCCC1` [2-39], the IC50 was 200 nM. Turning to `O=C1CCN(CCOc2ccc(-n3ccnc(NCCOc4ccccc4)c3=O)cc2)CC1` [1-40], the IC50 is 251 nM. The same measure for `O=c1c(NCCOc2ccccc2)nccn1-c1ccc(OCCCCN2CCCC2)cc1` [1-47]: 1000 nM; for `O=c1c(NCCOc2ccc(F)cc2)nccn1-c1ccc(OCCN2CCCC2)cc1` [2-17]: 2000 nM; for `COc1cc(-n2ccnc(NCCc3ccccc3)c2=O)ccc1OCCN1CCC(F)CC1` [3-50]: 20 nM. `O=c1c(NCCOc2ccccc2)nccn1-c1ccc(OCCN2CCC3(CC2)OCCO3)cc1` [1-43]: the IC50 is 200 nM. In the case of `COc1cc(-n2ccnc(NCCc3ccc(Br)cc3)c2=O)ccc1OCCN1CCCC1` [2-21], the IC50 was 39.8 nM. `COc1cc(-n2ccnc(NCCOc3ccccc3)c2=O)ccc1OCCN1CCOCC1` [1-74]: the IC50 was 79.4 nM.

As to `COc1cc(-n2ccnc(N3CCC(c4cccc(C(F)(F)F)c4)C3)c2=O)ccc1OCCN1CCCC1` (stereo not shown) [4-05], the IC50 is 2000 nM. `COc1cc(-n2ccnc(SCCc3ccccc3)c2=O)ccc1N1CC[C@@H](N(C)C)C1` [6-06]: the IC50 was 15.8 nM. For the molecule `O=c1c(NCCc2ccccc2)nccn1-c1ccc(N2CCNCC2)c(Cl)c1` [3-77], the IC50 is 100 nM. In the case of `O=c1c(SCCc2ccccc2)nccn1-c1ccc(OCCN2CCCC2)cc1` [2-10], the IC50 is 31.6 nM.

As to `COc1cc(-n2ccnc(NCCCOc3ccccc3)c2=O)ccc1OC1CCN(C(=O)OC(C)(C)C)CC1` [7-02], the IC50 is 126 nM. For the molecule `COc1cc(-n2ccnc(NCCOc3ccccc3Cl)c2=O)ccc1OCCN1CCCC1` [2-28], the IC50 was 79.4 nM.

With `COc1cc(-n2ccnc(NCCc3ccccc3Cl)c2=O)ccc1OCCN1CCCC1` [2-22], the IC50 is 100 nM. Take `COc1cc(-n2ccnc(SCCc3cccc(Cl)c3)c2=O)ccc1OCCN1CCCC1` [2-25]: the IC50 is 126 nM.

Take `CC(C)N1CCN(c2ccc(-n3ccnc(NCCOc4ccccc4)c3=O)cc2)CC1` [1-07]: the IC50 was 1580 nM.
